For series [1], the system named is pig weed. The series is described as follows: greenhouse post-emergence herbicidal test. The class given is in vivo, Amaranthus retroflexus. As to conditions: application rate 1.0 kg/ha a.s. From the text: (§1) The seeds of the test plants were sown separately for each species. For the post-emergence treatment, the test plants were first grown to a height of 3 to 15 cm, depending on the plant habit, and only then treated with the active ingredients which had been suspended or emulsified in water. For this purpose, the test plants were either sown directly and grown in the same containers, or they were first grown separately as seedlings and transplanted into the test containers a few days prior to treatment. The rate of application for the post-emergence treatment was 1.0 kg/ha of a.s. (active substance). Depending on the species, the plants were kept at 10-25° C. or 20-35° C. The test period extended over 2 to 4 weeks. During this time, the plants were tended, and their response to the individual treatments was evaluated. Evaluation was carried out using a scale from 0 to 100. 100 means no emergence of the plants, or complete destruction of at least the aerial parts, and 0 means no damage, or normal course of growth. The plants used in the greenhouse experiments belonged to the following species: [table]

Series [2] relates to lambsquarters. As to the kind of experiment: greenhouse post-emergence herbicidal test. The class given is in vivo, Chenopodium album. As to conditions: application rate 1.0 kg/ha a.s.
From the text: as §1

For series [3], the system named is green foxtail. The series is described as follows: greenhouse post-emergence herbicidal test. The settings on record: application rate 1.0 kg/ha a.s. The class given is in vivo, Setaria viridis.
From the text: as §1

Molecules are shown by their SMILES.

The values that follow come from patent US20090054240A1, “Heteroaroyl-substituted Alanines” (BASF SE, priority 2006, published 2009).

The molecule `CNC(=O)[C@H](CN)NC(=O)c1cn(C)nc1C(F)(F)F` [Compound 3.6, N-[(1S)-1-(Aminomethyl)-2-(methylamino)-2-oxoethyl]-1-methyl-3-(trifluoromethyl)-1H-pyrazole-4-carboxamide] registered a melting point of 127 °C.

Molecule `CNC(=O)[C@H](CNC(=O)OC)NC(=O)c1cn(C)nc1C(F)(F)F` [Compound 3.10, O-Methyl N-[(2S)-3-(methylamino)-2-({[1-methyl-3-(trifluoromethyl)-1H-pyrazol-4-yl]carbonyl}amino)-3-oxopropyl]carbamate] showed a melting point of 205 °C. For the same molecule, the “post-emergence action against pig weed” value in series [1] is given as “very good”. In series [2], the “post-emergence action against lambsquarters” value is reported as “very good”. Further, the “post-emergence action against green foxtail” value in series [3] is reported as “very good”.

With `CNC(=O)[C@H](CNC(=O)OC(C)(C)C)NC(=O)c1cn(C)nc1C(F)(F)F` [Compound 3.11, O-tert-Butyl N-[(2S)-3-(methylamino)-2-({[1-methyl-3-(trifluoromethyl)-1H-pyrazol-4-yl]carbonyl}amino)-3-oxopropyl]carbamate], the melting point was 78 °C.
